Results as given in article PMC3236199, “Development of Derivatives of 3, 3′-Diindolylmethane as Potent Leishmania donovani Bi-Subunit Topoisomerase IB Poisons” (PLoS ONE, 2011).

Test system: LdTOP1LS
Test: Plasmid cleavage assay
Assay type: biochemical, Leishmania donovani
Conditions: 20 µM, pHOT1 DNA
Method: Cleavage assay was carried out as described previously. Briefly, 50 fmol of pHOT1 supercoiled DNA (containing topoisomerase I cleavage site) and 100 fmol of reconstituted LdTOP1LS were incubated in standard reaction mixture (50 µl) containing 50 mM Tris/HCl (pH 7.5), 100 mM KCl, 10 mM MgCl2, 0.5 mM DTT, 0.5 mM EDTA and 30 µg/ml BSA in the presence of various concentrations of drugs at 37°C for 30 min. The reactions were terminated by adding 1% SDS and 150 µg/ml proteinase K and further incubated for 1 h at 37°C. DNA samples were electrophoresed in a 1% agarose gel containing 0.5 µg/ml EtBr.
The effect of DIM and its derivatives on L. donovani topoisomerase I was examined by plasmid DNA cleavage assay as described. The topoisomerase reaction has three general mechanistic steps: (i) binding of enzyme to the substrate DNA, (ii) single strand breakage and subsequent strand rotation through the break leading to change in linking number, and (iii) strand religation. The second step of reaction is the introduction of a single-stranded nick in the phosphodiester bond of the DNA, through which an intact strand is allowed to pass. […]

COc1ccc2[nH]cc(Cc3c[nH]c4ccc(OC)cc34)c2c1 [DMODIM, 5,5′-dimethoxy 3,3′-diindolyl methane]
conversion of closed circular DNA (form I) to nicked circular DNA (form II): didn't cause conversion of all the form I DNA to form II
